Like-named read-outs stand apart in the source and are kept apart here.
Legend:
[1] = molecular target: T1, RORγt (Homo sapiens, UniProt P51449); assay: RORγt binding test (TR-FRET, fluorescent-labeled cholesterol); details: binding inhibitory rate of fluorescent-labeled cholesterol to RORγt at test compound 1 μM
T1 sequence (P51449 1-497 isoform P51449-2): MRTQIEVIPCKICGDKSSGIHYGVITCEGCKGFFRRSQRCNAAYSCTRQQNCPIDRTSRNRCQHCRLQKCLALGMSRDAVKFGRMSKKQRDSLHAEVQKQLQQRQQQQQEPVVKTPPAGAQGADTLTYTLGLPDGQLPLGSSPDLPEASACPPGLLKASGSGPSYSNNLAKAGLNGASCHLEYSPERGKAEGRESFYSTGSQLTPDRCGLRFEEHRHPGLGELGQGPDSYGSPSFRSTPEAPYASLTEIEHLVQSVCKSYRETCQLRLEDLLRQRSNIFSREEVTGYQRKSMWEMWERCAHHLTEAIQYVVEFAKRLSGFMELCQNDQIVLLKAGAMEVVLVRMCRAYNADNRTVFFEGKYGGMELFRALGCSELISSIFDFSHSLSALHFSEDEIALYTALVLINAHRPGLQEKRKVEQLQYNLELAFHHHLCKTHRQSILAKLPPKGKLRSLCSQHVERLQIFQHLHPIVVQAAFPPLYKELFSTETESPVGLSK
Protocol: The binding activity of the test compound to RORγt was measured by a time resolved fluorescence resonance energy transfer method (TR-FRET) utilizing histidine-tagged RORγt, fluorescent-labeled cholesterol (BODIPY-cholesterol, AVIVA) and terbium-labeled anti-histidine tag antibody (Invitrogen). First, a test compound diluted with an assay buffer (20 mM Tris-HCl (pH 7.5), 100 mM NaCl, 1 mM DTT, 0.1% BSA) was added to a 384 well plate by 3 μL each. Then, RORγt diluted with an assay buffer to 240 nM was added by 3 μL each, after which fluorescent-labeled cholesterol diluted with the assay buffer to 12 μM was added by 3 μL each, and the mixture was stood at room temperature for 20 min. Thereafter, a terbium-labeled anti-histidine tag antibody diluted with the assay buffer to 8 nM was added by 3 μL each. The mixture was stood at room temperature for 20 min, and fluorescence intensity (excitation wavelength 320 nm, fluorescence wavelength 520 nm, delay time 100 microseconds) was measured by Envision (PerkinElmer).

[2] = molecular target: T1, RORγt; assay: Cofactor recruitment test (Alpha Screen, biotinylated SRC-1 peptide); type: biochemical; details: test compound 1 μM; read-out: signal value inhibitory rate (%)
Protocol: Cofactor Recruitment Test
Cofactor recruitment test was performed by Alpha Screen (Histidine Detection Kit, PerkinElmer) method. First, a test compound diluted with an assay buffer (50 mM Tris-HCl (pH 7.5), 50 mM KCl, 1 mM DTT, 0.1% BSA) was added to a 384 well plate by 5 μL each. […] The mixture was stood in a dark place for 1 hr, and the signal value was measured by Envision (PerkinElmer).

[3] = test system: human PBMC; assay: IL17 production test in human PBMC; type: cell-based; details: 72 h, 10 μM of test compound, IL-17A in culture supernatant, 3 days, read-out: inhibitory rate (%)
Protocol: IL17 Production Test in Human PBMC
Peripheral blood mononuclear cells (PBMC) collected from human peripheral blood by a density gradient centrifugation method were stimulated by Dynabeads (registered trade mark; anti-CD3/CD28 antibody) and cultured at 37° C. for 3 days. The test compound was dissolved in DMSO and then added thereto. After culture for 3 days under such conditions, the concentration of IL-17A in the culture supernatant obtained by centrifugation was measured by ELISA to evaluate the effect of the compound on IL-17 production.

[4] = molecular target: T1, RORγt; assay: Jurkat reporter test (IL-17 ROR response element luciferase); type: cell-based; set-up: expressed in transfected cells; host or cells: Jurkat cells; details: test compound 3 μM, Jurkat cells, read-out: luminescence level inhibitory rate (%)
Protocol: The Jurkat cells used for the reporter test were cultured in a culture medium (RPMI (Invitrogen), 10% FCS (AusGeneX), 100 U/mL penicillin, 100 μg/mL streptomycin). On the day of the test, 4×10^7 cells were recovered by a centrifugal operation (1000 rpm, 5 min.) and suspended in PBS (phosphate buffered saline) (Invitrogen). Thereafter, the cells were recovered again by a centrifugal operation, and suspended in 2 mL of R buffer (NEON transfection kit, Invitrogen). […] Gene transfer was performed by Electroporation apparatus (NEON, Invitrogen) under the conditions of pulse voltage 1350 V, interval 10 milliseconds, number of times 3. The cells after gene transfer were suspended in 40 mL of a reaction medium (RPMI, 10% Lipid reduced FCS (HyClone), 10 mM HEPES (pH 7.5), 100 U/mL penicillin, 100 μg/mL streptomycin, 5 μM lovastatin), and plated in a 96 well plate by 90 μL each. A test compound diluted with the reaction medium was added by 10 μL each, and the cells were cultured overnight in an incubator. Bright-Glo (Promega) was added by 100 μL each, and the mixture was stirred at room temperature for 10 min, and the luminescence level was measured by Envision (PerkinElmer).

[5] = test system: Th17 cells; assay: Mouse Th17 cell differentiation test (IL-17A by ELISA); type: cell-based; details: 96 h, 10 μM of test compound, IL-17A in culture supernatant, 4 days, read-out: inhibitory rate(%)
Protocol: Mouse Th17 Cell Differentiation Test
CD4 positive naive T cells were collected from the spleen cells of Balb/c mice (female, 8-11w) using CD4+CD62L+ T Cell Isolation kit II (Miltenyi Biotec). The CD4 positive naive T cells was plated in a 96 well plate (3×10^5 cells/well), and stimulated (37° C. for culture) with anti-mouse CD3ε antibody (10 μg/mL, solid phase) and anti-CD28 antibody (5 μg/mL) for 4 days in the presence of anti-IFN-γ antibody, anti-IL-4 antibody, anti-IL-2 antibody, IL-6, TGF-β and IL-23 to differentiate into Th17 cells. The compound was dissolved in DMSO and then added thereto. The cells were cultured under these conditions for 4 days, and differentiation of the Th17 cells was evaluated by using the concentration of IL-17A, which was measured by ELISA, in the culture supernatant obtained by centrifugation.

inhibition at 3 µM [4] [%]	SMILES	inhibition at 1 µM [1] [%]	inhibition at 1 µM [2] [%]	inhibition at 10 µM [3] [%]	inhibition at 3 µM ([4]; Jurkat) [%]	inhibition at 10 µM [5] [%]
	CCn1c(=O)c2cc(C(=O)NCC(CC(=O)Nc3ccc(C#N)c(Cl)c3)C(C)C)ccc2n(CC)c1=O (centres unmarked) [Example 17, N-(4-((3-chloro-4-cyanophenyl)amino)-2-isopropyl-4-oxobutyl)-1,3-diethyl-2,4-dioxo-1,2,3,4-tetrahydroquinazoline-6-carboxamide]	101	103	84	121	
	CC(CC(=O)Nc1ccc(C#N)c(Cl)c1)CC(=O)Nc1ccc2c(c1)c(=O)n(CC1CC1)c(=O)n2CC1CC1 (centres unmarked) [Example 2, N-(1,3-bis(cyclopropylmethyl)-2,4-dioxo-1,2,3,4-tetrahydroquinazolin-6-yl)-N′-(3-chloro-4-cyanophenyl)-3-methylpentanediamide]			96		97
115	CCn1c(=O)c2cc(NC(=O)CC(C)CNC(=O)c3ccc(C#N)c(Cl)c3)ccc2n(CC)c1=O (centres unmarked) [Example 23, 3-chloro-4-cyano-N-(4-((1,3-diethyl-2,4-dioxo-1,2,3,4-tetrahydroquinazolin-6-yl)amino)-2-methyl-4-oxobutyl)benzamide]	97.3	104			94
	CCn1c(=O)c2cc(C(=O)NCC(C)CC(=O)Nc3ccc(C#N)c(Cl)c3)ccc2n(CC)c1=O (centres unmarked) [Example 4, N-(4-((3-chloro-4-cyanophenyl)amino)-2-methyl-4-oxobutyl)-1,3-diethyl-2,4-dioxo-1,2,3,4-tetrahydroquinazoline-6-carboxamide]	96.7	105	97	116	
	CCn1c(=O)n(CCOC)c(=O)c2cc(NC(=O)CC(C)CC(=O)Nc3ccc(C#N)c(Cl)c3)ccc21 (centres unmarked) [Example 20, N-(3-chloro-4-cyanophenyl)-N′-(1-ethyl-3-(2-methoxyethyl)-2,4-dioxo-1,2,3,4-tetrahydroquinazolin-6-yl)-3-methylpentanediamide]	101	105		116	
	C#CCn1c(=O)c2cc(NC(=O)CC(C)CC(=O)Nc3ccc(C#N)c(Cl)c3)ccc2n(CC)c1=O (centres unmarked) [Example 28, N-(3-chloro-4-cyanophenyl)-N′-(1-ethyl-2,4-dioxo-3-(prop-2-yn-1-yl)-1,2,3,4-tetrahydroquinazolin-6-yl)-3-methylpentanediamide]	99.3	105		115	
	CCC1Oc2cc(NC(=O)CC(C)CC(=O)Nc3ccc(C#N)c(Cl)c3)ccc2N(CC)C1=O (centres unmarked) [Example 7, N-(3-chloro-4-cyanophenyl)-N′-(2,4-diethyl-3-oxo-3,4-dihydro-2H-1,4-benzoxazin-7-yl)-3-methylpentanediamide]			100		
	CCN1C(=O)C(c2ccccc2)Oc2cc(NC(=O)CC(C)CC(=O)Nc3ccc(C#N)c(Cl)c3)ccc21 (centres unmarked) [Example 12, N-(3-chloro-4-cyanophenyl)-N′-(4-ethyl-3-oxo-2-phenyl-3,4-dihydro-2H-1,4-benzoxazin-7-yl)-3-methylpentanediamide]	98.3	104	97	120	97
	CC(O)(CC(=O)Nc1ccc(C#N)c(Cl)c1)CC(=O)Nc1ccc2c(c1)c(=O)n(CC1CC1)c(=O)n2CC1CC1 (centres unmarked) [Example 102, N-(1,3-bis(cyclopropylmethyl)-2,4-dioxo-1,2,3,4-tetrahydroquinazolin-6-yl)-N′-(3-chloro-4-cyanophenyl)-3-hydroxy-3-methylpentanediamide]	103	104		104	
	CCn1c(=O)n(C[Si](C)(C)C)c(=O)c2cc(NC(=O)CC(C)CC(=O)Nc3ccc(C#N)c(Cl)c3)ccc21 (centres unmarked) [Example 32, N-(3-chloro-4-cyanophenyl)-N′-(1-ethyl-2,4-dioxo-3-((trimethylsilyl)methyl)-1,2,3,4-tetrahydroquinazolin-6-yl)-3-methylpentanediamide]	98.5	103		114	
	CC(CNC(=O)c1cc2c(=O)n(CC3CC3)c(=O)n(CC3CC3)c2cn1)CC(=O)Nc1ccc(C#N)c(Cl)c1 (centres unmarked) [Example 112, N-(4-((3-chloro-4-cyanophenyl)amino)-2-methyl-4-oxobutyl)-1,3-bis(cyclopropylmethyl)-2,4-dioxo-1,2,3,4-tetrahydropyrido[3,4-d]pyrimidine-6-carboxamide]	96.6	100		97.7	
	CCn1c(=O)n(C2CC2)c(=O)c2cc(NC(=O)CC(C)CC(=O)Nc3ccc(C#N)c(Cl)c3)ccc21 (centres unmarked) [Example 60, N-(3-chloro-4-cyanophenyl)-N′-(3-cyclopropyl-1-ethyl-2,4-dioxo-1,2,3,4-tetrahydroquinazolin-6-yl)-3-methylpentanediamide]	102	103		122	
